According to US20240383954A1, “PEPTIDE INHIBITORS OF INTERLEUKIN-23 RECEPTOR AND THEIR USE TO TREAT INFLAMMATORY DISEASES” (Janssen Biotech, Inc., priority 2020, published 2024):
Where a name gives a salt, the structure may show the parent alone. Positions of bridges follow the written chain, without caps; N, C: chain ends. Non-standard residues stand in square brackets, D forms with d. Residues, ends and D or L forms follow the SMILES beside them. *: point of attachment. Trp(7-Me) = Cc1cccc2c(C[C@H](N)C(=O)O)c[nH]c12; dPhe(4-NH2) = Nc1ccc(C[C@@H](N)C(=O)O)cc1; 2Nal = N[C@@H](Cc1ccc2ccccc2c1)C(=O)O; AEF = NCCOc1ccc(C[C@H](N)C(=O)O)cc1; αMeF = C[C@](N)(Cc1ccccc1)C(=O)O; Cit = NC(=O)NCCC[C@H](N)C(=O)O; αMeL = CC(C)C[C@](C)(N)C(=O)O; Pen = CC(C)(S)[C@H](N)C(=O)O; αMeK = C[C@](N)(CCCCN)C(=O)O; Isobutyryl = CC(C)C(=O)*; Ac5c = NC1(C(=O)O)CCCC1; Thp = NC1(C(=O)O)CCOCC1; Ac3c = NC1(C(=O)O)CC1; Propionyl = CCC(=O)*; Tfa = O=C(C(F)(F)F)*

Biological target: IL-23R (Homo sapiens, UniProt Q5VWK5)
Assay: cell-based
Conditions: PBMC pSTAT3 IC50 (nM), PBMCs from healthy donors, IL-23 5 ng/mL, 30 minutes, phosphorylated STAT3
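Note: cryopreserved PBMCs stimulated at 37 °C in 5% CO2, then lysed, with phosphorylated STAT3 quantified in lysates using a phospho-STAT panel kit.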

IL-23R, sequence (Q5VWK5 24-629): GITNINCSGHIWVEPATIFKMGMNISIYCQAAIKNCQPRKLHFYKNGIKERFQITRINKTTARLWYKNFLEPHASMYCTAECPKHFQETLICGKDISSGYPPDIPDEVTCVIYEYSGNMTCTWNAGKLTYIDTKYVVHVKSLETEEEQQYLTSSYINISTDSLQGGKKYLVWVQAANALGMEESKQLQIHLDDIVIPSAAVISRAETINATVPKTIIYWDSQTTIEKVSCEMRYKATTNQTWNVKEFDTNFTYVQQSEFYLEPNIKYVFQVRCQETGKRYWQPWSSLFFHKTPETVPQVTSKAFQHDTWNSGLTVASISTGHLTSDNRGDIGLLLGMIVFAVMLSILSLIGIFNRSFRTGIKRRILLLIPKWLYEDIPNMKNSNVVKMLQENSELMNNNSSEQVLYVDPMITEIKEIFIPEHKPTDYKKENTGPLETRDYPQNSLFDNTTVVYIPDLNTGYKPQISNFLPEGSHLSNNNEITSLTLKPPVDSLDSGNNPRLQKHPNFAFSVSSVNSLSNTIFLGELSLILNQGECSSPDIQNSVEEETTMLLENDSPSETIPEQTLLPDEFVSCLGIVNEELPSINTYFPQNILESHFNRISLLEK

SMILES	IC50
CC(=O)NCCCC[C@@H]1NC(=O)[C@H](Cc2c[nH]c3ccccc23)NC(=O)[C@H]([C@@H](C)O)NC(=O)[C@H](CC(N)=O)NC(=O)[C@@H](NC(=O)[C@@H](CCCNC(=N)N)NC(C)=O)C(C)(C)SSC(C)(C)[C@@H](C(=O)N[C@@H](Cc2ccc(OCCN)cc2)C(=O)N[C@@H](Cc2ccc3ccccc3c2)C(=O)NC2(C(=O)N[C@@H](CCC(=O)O)C(=O)N[C@@H](CC(N)=O)C(=O)N[C@@](C)(Cc3ccccc3)C(N)=O)CCOCC2)NC1=O [Compound 106, Ac-[(D)Arg]-[Pen]-N-T-W-[Lys(Ac)]-[Pen]-Phe[4-(2-aminoethoxy)]-[2-Nal]-[THP]-E-N-[a-MePhe]-NH2] (Ac-[dR][Pen]NTWK(Ac)[Pen][AEF][2Nal][Thp]EN[αMeF]-NH2; disulfide 2-7)	13 nM
CC(=O)NCCCC[C@@H]1NC(=O)[C@H](Cc2c[nH]c3c(C)cccc23)NC(=O)[C@H]([C@@H](C)O)NC(=O)[C@H](CC(N)=O)NC(=O)[C@@H](NC(C)=O)C(C)(C)SSC(C)(C)[C@@H](C(=O)N[C@@H](Cc2ccc(OCCN)cc2)C(=O)N[C@@H](Cc2ccc3ccccc3c2)C(=O)NC2(C(=O)N[C@@H](CCCCNC(=O)C(F)(F)F)C(=O)N[C@@H](CC(N)=O)C(=O)N[C@@](C)(Cc3ccccc3)C(N)=O)CCOCC2)NC1=O [Compound 138, Ac-[Pen]-N-T-[W(7-Me)]-[Lys(Ac)]-[Pen]-Phe[4-(2-aminoethoxy)]-[2-Nal]-[THP]-[Lys(COCF3)]-N-[a-MePhe]-NH2]	7.6 nM
CC(=O)N[C@H](CCCNC(=N)N)C(=O)N[C@H]1CCSC[C@@H](C(=O)N[C@@H](Cc2ccc(OCCN)cc2)C(=O)N[C@@H](Cc2ccc3ccccc3c2)C(=O)NC2(C(=O)N[C@@H](CCC(=O)O)C(=O)N[C@@H](CC(N)=O)C(=O)N[C@@](C)(Cc3ccc4ccccc4c3)C(N)=O)CCOCC2)NC(=O)[C@H](CCC(N)=O)NC(=O)[C@H](Cc2c[nH]c3ccccc23)NC(=O)[C@H]([C@@H](C)O)NC(=O)[C@H](CCC(N)=O)NC1=O [Compound 80, Ac-[(D)Arg]-[Abu]-Q-T-W-Q-[Cys]-Phe[4-(2-aminoethoxy)]-[2-Nal]-[THP]-E-N-[aMe(2-Nal)]-NH2]	46 nM
CC(=O)N[C@H](CCCNC(=N)N)C(=O)N[C@@H]1C(=O)N[C@@H](CCC(N)=O)C(=O)N[C@@H]([C@@H](C)O)C(=O)N[C@@H](Cc2c[nH]c3ccccc23)C(=O)N[C@@H](CCC(N)=O)C(=O)N[C@H](C(=O)N[C@@H](Cc2ccc(OCCN)cc2)C(=O)N[C@@H](Cc2ccc3ccccc3c2)C(=O)NC2(C(=O)N[C@@H](CCCCNC(=O)C(F)(F)F)C(=O)N[C@@H](CC(N)=O)C(=O)N[C@@H](Cc3ccccc3)C(N)=O)CCOCC2)C(C)(C)SSC1(C)C [Compound 60, Ac-[(D)Arg]-[Pen]-Q-T-W-Q-[Pen]-Phe[4-(2-aminoethoxy)]-[2-Nal]-[THP]-[Lys(COCF3)]-N-F-NH2] (Ac-[dR][Pen]QTWQ[Pen][AEF][2Nal][Thp]K(Tfa)NF-NH2; disulfide 2-7)	44 nM
CC(=O)NCCCC[C@@H]1NC(=O)[C@H](Cc2c[nH]c3ccccc23)NC(=O)[C@H]([C@@H](C)O)NC(=O)[C@H](CCC(N)=O)NC(=O)[C@@H](NC(C)=O)C(C)(C)SSC(C)(C)[C@@H](C(=O)N[C@@H](Cc2ccc(OCCN)cc2)C(=O)N[C@@H](Cc2ccc3ccccc3c2)C(=O)N[C@@](C)(CCCCN)C(=O)N[C@@H](CCCCNC(C)=O)C(=O)N[C@@H](CC(N)=O)C(=O)N[C@@](C)(Cc2ccccc2)C(N)=O)NC1=O [Compound 82, Ac-[Pen]-Q-T-W-[Lys(Ac)]-[Pen]-Phe[4-(2-aminoethoxy)]-[2-Nal]-[a-MeLys]-[Lys(Ac)]-N-[a-MePhe]-NH2] (Ac-[Pen]QTWK(Ac)[Pen][AEF][2Nal][αMeK]K(Ac)N[αMeF]-NH2; disulfide 1-6)	54 nM
CC(=O)N[C@H](CCCNC(=N)N)C(=O)N[C@@H]1C(=O)N[C@@H](CC(N)=O)C(=O)N[C@@H]([C@@H](C)O)C(=O)N[C@@H](Cc2c[nH]c3c(C)cccc23)C(=O)N[C@@H](CCCNC(N)=O)C(=O)N[C@H](C(=O)N[C@@H](Cc2ccc(OCCN)cc2)C(=O)N[C@@H](Cc2ccc3ccccc3c2)C(=O)N[C@@](C)(CC(C)C)C(=O)N[C@@H](CCC(=O)O)C(=O)N[C@@H](CC(N)=O)C(=O)N[C@@](C)(Cc2ccccc2)C(N)=O)C(C)(C)SSC1(C)C [Compound 149, Ac-[(D)Arg]-[Pen]-N-T-[W(7-Me)]-[Cit]-[Pen]-Phe[4-(2-aminoethoxy)]-[2-Nal]-[aMeLeu]-E-N-[a-MePhe]-NH2] (Ac-[dR][Pen]NT[Trp(7-Me)][Cit][Pen][AEF][2Nal][αMeL]EN[αMeF]-NH2; disulfide 2-7)	2.3 nM
CCC(=O)N[C@H](CCCNC(=N)N)C(=O)N[C@@H]1C(=O)N[C@@H](CCC(N)=O)C(=O)N[C@@H]([C@@H](C)O)C(=O)N[C@@H](Cc2c[nH]c3ccccc23)C(=O)N[C@@H](CCC(N)=O)C(=O)N[C@H](C(=O)N[C@@H](Cc2ccc(OCCN)cc2)C(=O)N[C@@H](Cc2ccc3ccccc3c2)C(=O)NC2(C(=O)N[C@@H](CCC(=O)O)C(=O)N[C@@H](CC(N)=O)C(=O)NC3(C(N)=O)CCOCC3)CCOCC2)C(C)(C)SSC1(C)C [Compound 10, [Propionic_acid]-[(D)Arg]-[Pen]-Q-T-W-Q-[Pen]-Phe[4-(2-aminoethoxy)]-[2-Nal]-[THP]-E-N-[THP]-NH2] (Propionyl-[dR][Pen]QTWQ[Pen][AEF][2Nal][Thp]EN[Thp]-NH2; disulfide 2-7)	4.6 nM
CC(=O)N[C@H](CCCNC(=N)N)C(=O)N[C@@H]1C(=O)N[C@@H](CC(N)=O)C(=O)N[C@@H]([C@@H](C)O)C(=O)N[C@@H](Cc2c[nH]c3c(C)cccc23)C(=O)N[C@@H](CCC(N)=O)C(=O)N[C@H](C(=O)N[C@@H](Cc2ccc(OCCN)cc2)C(=O)N[C@@H](Cc2ccc3ccccc3c2)C(=O)NC2(C(=O)N[C@@H](CCC(=O)O)C(=O)N[C@@H](CC(N)=O)C(=O)NC3(C(N)=O)CCOCC3)CCOCC2)C(C)(C)SSC1(C)C [Compound 90, Ac-[(D)Arg]-[Pen]-N-T-[W(7-Me)]-Q-[Pen]-Phe[4-(2-aminoethoxy)]-[2-Nal]-[THP]-E-N-[THP]-NH2] (Ac-[dR][Pen]NT[Trp(7-Me)]Q[Pen][AEF][2Nal][Thp]EN[Thp]-NH2; disulfide 2-7)	3.7 nM
CC(=O)N[C@H](CCCNC(=N)N)C(=O)N[C@@H]1C(=O)N[C@@H](CCC(N)=O)C(=O)N[C@@H]([C@@H](C)O)C(=O)N[C@@H](Cc2c[nH]c3ccccc23)C(=O)N[C@@H](CCC(N)=O)C(=O)N[C@H](C(=O)N[C@@H](Cc2ccc(OCCN)cc2)C(=O)N[C@@H](Cc2ccc3ccccc3c2)C(=O)NC2(C(=O)N[C@@H](CCCCNC(=O)C(C)C)C(=O)N[C@@H](CC(N)=O)C(=O)N[C@@H](Cc3ccccc3)C(N)=O)CCOCC2)C(C)(C)SSC1(C)C [Compound 61, Ac-[(D)Arg]-[Pen]-Q-T-W-Q-[Pen]-Phe[4-(2-aminoethoxy)]-[2-Nal]-[THP]-[Lys(COiPr)]-N-F-NH2] (Ac-[dR][Pen]QTWQ[Pen][AEF][2Nal][Thp]K(Isobutyryl)NF-NH2; disulfide 2-7)	70 nM
CC(=O)NCCCC[C@@H]1NC(=O)[C@H](Cc2c[nH]c3c(C)cccc23)NC(=O)[C@H]([C@@H](C)O)NC(=O)[C@H](CC(N)=O)NC(=O)[C@@H](NC(=O)[C@@H](CCCNC(=N)N)NC(C)=O)C(C)(C)SSC(C)(C)[C@@H](C(=O)N[C@@H](Cc2ccc(OCCN)cc2)C(=O)N[C@@H](Cc2ccc3ccccc3c2)C(=O)NC2(C(=O)N[C@@H](CCC(=O)O)C(=O)N[C@@H](CC(N)=O)C(=O)N[C@@H](Cc3c[nH]cn3)C(=O)N[C@H](Cc3ccc(N)cc3)C(N)=O)CC2)NC1=O [Compound 315, MeCO-r-Pen-N-T-7MeW-K(Ac)-Pen-AEF-2Nal-Acpx-E-N-H-4AmDPhe---CONH2] (Ac-[dR][Pen]NT[Trp(7-Me)]K(Ac)[Pen][AEF][2Nal][Ac3c]ENH[dPhe(4-NH2)]-NH2; disulfide 2-7)	2 nM
CC(=O)N[C@H](CCCNC(=N)N)C(=O)N[C@H]1CCSC[C@@H](C(=O)N[C@@H](Cc2ccc(OCCN)cc2)C(=O)N[C@@H](Cc2ccc3ccccc3c2)C(=O)NC2(C(=O)N[C@@H](CCC(=O)O)C(=O)N[C@@H](CC(N)=O)C(=O)N[C@@](C)(Cc3ccccc3)C(N)=O)CCOCC2)NC(=O)[C@H](CCC(N)=O)NC(=O)[C@H](Cc2c[nH]c3ccccc23)NC(=O)[C@H]([C@@H](C)O)NC(=O)[C@H](CCC(N)=O)NC1=O [Compound 123, Ac-[(D)Arg]-[Abu]-Q-T-W-Q-[Cys]-Phe[4-(2-aminoethoxy)]-[2-Nal]-[THP]-E-N-[a-MePhe]-NH2]	11 nM
CC(=O)NCCCC[C@H](NC(=O)[C@](C)(CC(C)C)NC(=O)[C@H](Cc1ccc2ccccc2c1)NC(=O)[C@H](Cc1ccc(OCCN)cc1)NC(=O)[C@H]1NC(=O)[C@H](CCCNC(N)=O)NC(=O)[C@H](Cc2c[nH]c3c(C)cccc23)NC(=O)[C@H]([C@@H](C)O)NC(=O)[C@H](CC(N)=O)NC(=O)[C@@H](NC(C)=O)C(C)(C)SSC1(C)C)C(=O)N[C@@H](CC(N)=O)C(=O)N[C@@](C)(Cc1ccccc1)C(N)=O [Compound 104, Ac-[Pen]-N-T-[W(7-Me)]-[Cit]-[Pen]-Phe[4-(2-aminoethoxy)]-[2-Nal]-[aMeLeu]-[Lys(Ac)]-N-[a-MePhe]-NH2] (Ac-[Pen]NT[Trp(7-Me)][Cit][Pen][AEF][2Nal][αMeL]K(Ac)N[αMeF]-NH2; disulfide 1-6)	8.2 nM
CC(=O)NCCCC[C@@H]1NC(=O)[C@H](Cc2c[nH]c3ccccc23)NC(=O)[C@H]([C@@H](C)O)NC(=O)[C@H](CC(N)=O)NC(=O)[C@@H](NC(=O)[C@@H](CCCNC(=N)N)NC(C)=O)C(C)(C)SSC(C)(C)[C@@H](C(=O)N[C@@H](Cc2ccc(OCCN)cc2)C(=O)N[C@@H](Cc2ccc3ccccc3c2)C(=O)NC2(C(=O)N[C@@H](CCC(=O)O)C(=O)N[C@@H](CC(N)=O)C(=O)N[C@@](C)(Cc3ccccc3)C(N)=O)CCCC2)NC1=O [Compound 102, Ac-[(D)Arg]-[Pen]-N-T-W-[Lys(Ac)]-[Pen]-Phe[4-(2-aminoethoxy)]-[2-Nal]-[Acvc]-E-N-[a-MePhe]-NH2] (Ac-[dR][Pen]NTWK(Ac)[Pen][AEF][2Nal][Ac5c]EN[αMeF]-NH2; disulfide 2-7)	8.4 nM
